Measured values reported in US6376426B1, “Herbicidal 3-(heterocycl-1-yl)-uracils” (BASF Aktiengesellschaft, priority 1999, dated 2002).

Assays:
Type in all cases: in vivo
[1] = tested on: Triticum aestivum; test: Pre-emergence herbicidal test, TRZAW; conditions: 21 days after spraying
Description: (§1) To evaluate their herbicidal activity, compounds according to the invention are tested using a representative range of plants:
(§2) The pre-emergence tests involve spraying a liquid formulation of the compound onto the soil in which the seeds of the plant species mentioned above has recently been sown.
(§3) The soil used in the tests is a prepared horticultural loam. The formulations used in the tests are prepared from solutions of the test compounds in acetone containing 0.4% by weight of an alkylphenol/ethylene oxide condensate available under the trade mark TRITON X-155. […] In these tests untreated sown soil are used as controls.
(§4) The herbicidal effects of the test compounds are assessed visually twenty-one days after spraying the foliage and the soil and are recorded on a 0-9 scale. A rating 0 indicates growth as untreated control, a rating 9 indicates death. An increase of 1 unit on the linear scale approximates to a 10% increase in the level of effect.

[2] = tested on: Hordeum vulgare; test: Pre-emergence herbicidal test, HORVW; conditions: 21 days after spraying
Description: as §1, §2, §3, §4

[3] = tested on: Zea mays; test: Pre-emergence herbicidal test, ZEAMX; conditions: PRE, 21 days after spraying
Description: as §1, §2, §3, §4

[4] = tested on: Glycine max; test: Pre-emergence herbicidal test, GLXMA; parameters: key to herbicidal effect (0-9 scale) GLXMA / herbicidal rating GLXMA: A rating 0 indicates growth as untreated control; a rating 9 indicates death; conditions: PRE, 21 days after spraying
Description: as §1, §2, §3, §4

[5] = tested on: Setaria viridis; test: Pre-emergence herbicidal test, SETVI; conditions: PRE, 21 days after spraying
Description: as §1, §2, §3, §4

[6] = tested on: Echinochloa crus-galli; test: Pre-emergence herbicidal test, ECHCG; conditions: 21 days after spraying
Description: as §1, §2, §3, §4

[7] = tested on: Alopecurus myosuroides; test: Pre-emergence herbicidal test, ALOMY; conditions: PRE, 21 days after spraying
Description: as §1, §2, §3, §4

[8] = tested on: Ipomoea hederacea; test: Pre-emergence herbicidal test, IPOHE; conditions: 21 days after spraying
Description: as §1, §2, §3, §4

[9] = tested on: Galium aparine; test: Pre-emergence herbicidal test, GALAP; conditions: PRE, 21 days after spraying
Description: as §1, §2, §3, §4

[10] = tested on: Abutilon theophrasti; test: Pre-emergence herbicidal test, ABUTH; parameters: key to herbicidal effect (0-9 scale) ABUTH / herbicidal rating ABUTH: A rating 0 indicates growth as untreated control; a rating 9 indicates death; conditions: PRE, 21 days after spraying
Description: as §1, §2, §3, §4

[11] = tested on: Stellaria media; test: Pre-emergence herbicidal test, STEME; parameters: key to herbicidal effect (0-9 scale) STEME / herbicidal rating STEME: A rating 0 indicates growth as untreated control; a rating 9 indicates death; conditions: PRE, 21 days after spraying
Description: as §1, §2, §3, §4

[12] = tested on: Matricaria inodora; test: Pre-emergence herbicidal test, MATIN; conditions: PRE, 21 days after spraying
Description: as §1, §2, §3, §4

[13] = tested on: Triticum aestivum; test: Post-emergence herbicidal test, TRZAW; parameters: key to herbicidal effect (0-9 scale) TRZAW: A rating 0 indicates growth as untreated control; a rating 9 indicates death; conditions: POST, 21 days after spraying
Description: as §1
(§5) […] After spraying, the plants are placed on greenhouse benches and are cared for in the usual manner, commensurate with conventional greenhouse practices.
as §4

[14] = tested on: Hordeum vulgare; test: Post-emergence herbicidal test, HORVW; conditions: 21 days after spraying
Description: as §1
These acetone solutions are diluted with water and the resulting formulations applied at dosage levels equivalent to about 1000, 800, 400, 250 or 100 g/ha per hectare of test compound per pot. After spraying, the plants are placed on greenhouse benches and are cared for in the usual manner, commensurate with conventional greenhouse practices.
as §4

[15] = tested on: Zea mays; test: Post-emergence herbicidal test, ZEAMX; conditions: 21 days after spraying
Description: as §1, §5, §4

[16] = tested on: Glycine max; test: Post-emergence herbicidal test, GLXMA; conditions: 21 days after spraying
Description: as §1, §5, §4

[17] = tested on: Setaria viridis; test: Post-emergence herbicidal test, SETVI; conditions: POST, 21 days after spraying
Description: as §1, §5, §4

[18] = tested on: Echinochloa crus-galli; test: Post-emergence herbicidal test, ECHCG; conditions: 21 days after spraying
Description: as §1, §5, §4

[19] = tested on: Alopecurus myosuroides; test: Post-emergence herbicidal test, ALOMY; conditions: 21 days after spraying
Description: as §1, §5, §4

[20] = tested on: Ipomoea hederacea; test: Post-emergence herbicidal test, IPOHE; parameters: key to herbicidal effect (0-9 scale) IPOHE / herbicidal rating IPOHE: A rating 0 indicates growth as untreated control; a rating 9 indicates death; conditions: POST, 21 days after spraying
Description: as §1, §5, §4

[21] = tested on: Galium aparine; test: Post-emergence herbicidal test, GALAP; conditions: POST, 21 days after spraying
Description: as §1, §5, §4

[22] = tested on: Abutilon theophrasti; test: Post-emergence herbicidal test, ABUTH; parameters: key to herbicidal effect (0-9 scale) ABUTH / herbicidal rating ABUTH: A rating 0 indicates growth as untreated control; a rating 9 indicates death; conditions: POST, 21 days after spraying
Description: as §1, §5, §4

[23] = tested on: Stellaria media; test: Post-emergence herbicidal test, STEME; parameters: key to herbicidal effect (0-9 scale) STEME / herbicidal rating STEME: A rating 0 indicates growth as untreated control; a rating 9 indicates death; conditions: POST, 21 days after spraying
Description: as §1, §5, §4

[24] = tested on: Matricaria inodora; test: Post-emergence herbicidal test, MATIN; conditions: POST, 21 days after spraying
Description: as §1, §5, §4

## Cn1c(C(F)(F)F)cc(=O)n(-n2ccc3ccc([N+](=O)[O-])cc32)c1=O [Example 5]
[1]; 250 g/ha
  herbicidal effect (0-9 scale) TRZAW: 2
[1]; 1000 g/ha
  herbicidal effect (0-9 scale) TRZAW: 5
[2]; 250 g/ha
  herbicidal effect (0-9 scale) HORVW: 4
[2]; 1000 g/ha
  herbicidal effect (0-9 scale) HORVW: 6
[3]; 250 g/ha
  herbicidal effect (0-9 scale) ZEAMX: 4
[3]; 1000 g/ha
  herbicidal effect (0-9 scale) ZEAMX: 5
[4]; 250 g/ha
  herbicidal effect (0-9 scale) GLXMA: 0
[4]; 1000 g/ha
  herbicidal effect (0-9 scale) GLXMA: 0
[5]; 250 g/ha
  herbicidal effect (0-9 scale) SETVI: 8
[5]; 1000 g/ha
  herbicidal effect (0-9 scale) SETVI: 8
[6]; 250 g/ha
  herbicidal effect (0-9 scale) ECHCG: 7
[6]; 1000 g/ha
  herbicidal effect (0-9 scale) ECHCG: 8
[7]; 250 g/ha
  herbicidal effect (0-9 scale) ALOMY: 3
[7]; 1000 g/ha
  herbicidal effect (0-9 scale) ALOMY: 6
[8]; 250 g/ha
  herbicidal effect (0-9 scale) IPOHE: 5
[8]; 1000 g/ha
  herbicidal effect (0-9 scale) IPOHE: 5
[9]; 250 g/ha
  herbicidal effect (0-9 scale) GALAP: 5
[9]; 1000 g/ha
  herbicidal effect (0-9 scale) GALAP: 8
[10]; 250 g/ha
  herbicidal effect (0-9 scale) ABUTH: 5
[10]; 1000 g/ha
  herbicidal effect (0-9 scale) ABUTH: 9
[11]; 250 g/ha
  herbicidal effect (0-9 scale) STEME: 0
[11]; 1000 g/ha
  herbicidal effect (0-9 scale) STEME: 2
[12]; 250 g/ha
  herbicidal effect (0-9 scale) MATIN: 7
[12]; 1000 g/ha
  herbicidal effect (0-9 scale) MATIN: 8
[13]; 250 g/ha
  herbicidal effect (0-9 scale) TRZAW: 0
[13]; 1000 g/ha
  herbicidal effect (0-9 scale) TRZAW: 2
[14]; 250 g/ha
  herbicidal effect (0-9 scale) HORVW: 2
[14]; 1000 g/ha
  herbicidal effect (0-9 scale) HORVW: 4
[15]; 250 g/ha
  herbicidal effect (0-9 scale) ZEAMX: 2
[15]; 1000 g/ha
  herbicidal effect (0-9 scale) ZEAMX: 5
[16]; 250 g/ha
  herbicidal effect (0-9 scale) GLXMA: 6
[16]; 1000 g/ha
  herbicidal effect (0-9 scale) GLXMA: 8
[17]; 250 g/ha
  herbicidal effect (0-9 scale) SETVI: 7
[17]; 1000 g/ha
  herbicidal effect (0-9 scale) SETVI: 8
[18]; 250 g/ha
  herbicidal effect (0-9 scale) ECHCG: 5
[18]; 1000 g/ha
  herbicidal effect (0-9 scale) ECHCG: 8
[19]; 250 g/ha
  herbicidal effect (0-9 scale) ALOMY: 1
[19]; 1000 g/ha
  herbicidal effect (0-9 scale) ALOMY: 4
[20]; 250 g/ha
  herbicidal effect (0-9 scale) IPOHE: 6
[20]; 1000 g/ha
  herbicidal effect (0-9 scale) IPOHE: 9
[21]; 250 g/ha
  herbicidal effect (0-9 scale) GALAP: 4
[21]; 1000 g/ha
  herbicidal effect (0-9 scale) GALAP: 6
[22]; 250 g/ha
  herbicidal effect (0-9 scale) ABUTH: 8
[22]; 1000 g/ha
  herbicidal effect (0-9 scale) ABUTH: 9
[23]; 250 g/ha
  herbicidal effect (0-9 scale) STEME: 0
[23]; 1000 g/ha
  herbicidal effect (0-9 scale) STEME: 5
[24]; 250 g/ha
  herbicidal effect (0-9 scale) MATIN: 4
[24]; 1000 g/ha
  herbicidal effect (0-9 scale) MATIN: 7
